Data from patent US20250002435A1, “ARYLATED FENCHONE DERIVATIVES, COMPOSITIONS COMPRISING THEM, PROCESSES FOR THEIR PREPARATION AND USES THEREOF” (priority 2021, published 2025).
Entries after “also recorded” stand apart in the source; their conditions may differ. Where two headings read alike, the source gives them in different places.

Assays:
mCB1R = mCB1R (Mus musculus (Mouse), UniProt P47746); test: [3H]CP-55,940 competition displacement binding, crude membranes from mouse brain
Procedure: (§1) Affinity for Cannabinoid Receptors. The compounds were further characterized using a radioligand binding assay to determine their affinities for CB1R and CB2R based on each test compound's ability to displace the radiolabeled CB1R/CB2R agonist CP-55,940 from membranes prepared from a mouse brain (a source of CB1R) and membranes of cells expressing the human CB2R. […] Therefore, the compounds were assayed using membranes from CHO-K1 cells expressing the human CB2R (hCB2R).
(§2) Membranes from cells expressing human CB2R were purchased from Charles River, (Cat #A308; Ohio, US). Solutions of test compounds ranging from 0.1 nM to 10 mM were prepared in DMSO. The desired amount of membrane preparation was diluted with ice-cold assay buffer (50 mM Tris-HCl, 2.5 mM EDTA, 5 mM MgCl2, 0.1% BSA, pH 7.4) and was vortexed. […] The assays were incubated for 90 minutes at 30° C. and then immediately filtered on WHATMAN GF/B FilterPaper (Fired) using a Brandel M-24R Harvester followed by six washes with ice cold wash buffer (50 mM Tris-HCl, 2.5 mM EDTA, 5 mM MgCl2, 0.1% BSA, pH 7.4). Radioactivity was detected by adding the FilterPaper directly to the ULTIMA GOLD scintillation cocktail (PerkinElmer), incubation at 20° C. for 60 min and then counted using a Tri-Carb 4910TR liquid scintillation counter.

hCB2R [1] = target: T1, hCB2R (Homo sapiens (Human), UniProt P34972); test: [3H]CP-55,940 competition displacement binding, membranes of CHO-K1 cells expressing human CB2R
T1 sequence (P34972 whole entry): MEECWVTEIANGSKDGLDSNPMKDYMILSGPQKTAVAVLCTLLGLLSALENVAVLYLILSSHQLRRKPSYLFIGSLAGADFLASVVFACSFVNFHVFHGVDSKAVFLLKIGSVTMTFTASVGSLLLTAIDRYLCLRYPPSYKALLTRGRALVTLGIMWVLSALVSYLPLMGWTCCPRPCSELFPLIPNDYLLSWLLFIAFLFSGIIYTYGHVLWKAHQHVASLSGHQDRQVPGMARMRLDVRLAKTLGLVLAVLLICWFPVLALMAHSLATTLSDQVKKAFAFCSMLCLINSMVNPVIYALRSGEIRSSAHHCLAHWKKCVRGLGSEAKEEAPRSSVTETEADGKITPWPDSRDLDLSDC
Procedure: as §1, §2

hCB2R [2] = target: T1, hCB2R; test: [35S]GTPγS binding assay, hCB2R CHO cell membranes; assay type: biochemical; settings: for functional activity at hCB2R (agonist / inverse agonist): [35S]GTPγS binding; for E(max) %: percentage of HU-308 response at 1 μM; for EC50: [35S]GTPγS binding to hCB2R, two independent experiments in triplicate
Procedure: Functional Characterization.
The method used for measuring agonist-stimulated binding of [^35S]GTPγS was based on a described protocol. The assays were carried out with GTPγS assay buffer (50 mM Tris HCl (pH 7.4), 0.2 mM EGTA, 9 mM MgCl2, 150 mM NaCl, 1 mg/ml BSA). Briefly, membranes (5 μg protein) were incubated in assay buffer containing 100 μM GDP, 0.05 nM [^35S]GTPγS, test compounds at various concentrations in siliconized glass tubes. Bound ligand was separated from free ligand by vacuum filtration. Nonspecific binding was determined using 10 μM GTPS. Basal binding was assayed in the absence of the ligand and in the presence of GDP.

[3] = displacement of [3H]CP-55,940, NB = No binding detected at concentrations up to 10 μM, read-out: Ki (nM) mCB1R
[4] = >10 μM = Displacement of radioactive ligand detected at high concentrations competing ligand, read-out: Ki mCB1R

mCB1R, sequence (P47746 whole entry): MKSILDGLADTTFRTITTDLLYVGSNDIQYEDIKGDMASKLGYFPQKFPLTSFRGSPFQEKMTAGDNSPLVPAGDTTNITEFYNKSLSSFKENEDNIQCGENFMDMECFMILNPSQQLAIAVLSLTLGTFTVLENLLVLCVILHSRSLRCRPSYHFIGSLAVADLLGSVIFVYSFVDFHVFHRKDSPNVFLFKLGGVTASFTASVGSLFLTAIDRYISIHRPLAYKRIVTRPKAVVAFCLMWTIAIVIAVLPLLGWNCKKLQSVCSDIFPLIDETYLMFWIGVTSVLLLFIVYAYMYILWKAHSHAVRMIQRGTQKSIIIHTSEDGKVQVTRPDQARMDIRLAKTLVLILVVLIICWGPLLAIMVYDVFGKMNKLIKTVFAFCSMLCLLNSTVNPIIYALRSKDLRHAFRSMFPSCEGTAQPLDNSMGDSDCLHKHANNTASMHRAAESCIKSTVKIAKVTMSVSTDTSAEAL

| Structure (SMILES) | Ki (mCB1R; [3]) | Ki (hCB2R [1]; displacement of [3H]CP-55,940) | functional activity at hCB2R (agonist / inverse agonist) (hCB2R [2]) | also measured |
| --- | --- | --- | --- | --- |
| CCCCCc1ccc(OC)c(C2(O)C3(C)CCC(C3)C2(C)C)c1 (single isomer, unassigned) [Compound 3d, 2-(2′-methoxy-5′-pentylphenyl)-1,3,3-trimethylbicyclo[2.2.1]heptan-2-ol] | > 10000 nM | – | – | – |
| CCCCCCC(C)(C)c1cc(OC)c(C2(O)C3(C)CCC(C3)C2(C)C)c(OC)c1F (single isomer, unassigned) [Compound 4c, 2-(3′-fluoro-2,6′-dimethoxy-4′-(2″-methyloctan-2″-yl)phenyl)-1,3,3-trimethyl-bicyclo[2.2.1]heptan-2-ol] | > 10000 nM | 438 nM | – | – |
| CCCCCCC(C)(C)c1cc(O)c(C2(O)C3(C)CCC(C3)C2(C)C)c(OC)c1 (stereo not drawn) [Compound 5c, 2-(2′-hydroxy-6′-methoxy-4′-(2″-methyloctan-2″-yl)phenyl)-1,3,3-trimethyl-bicyclo[2.2.1]heptan-2-ol] | > 10000 nM | 107 nM | – | – |
| CCCCCc1ccc(OC)c(C2(O)C3(C)CCC(C3)C2(C)C)c1 (single isomer, unassigned) [Compound 3c, 2-(2′-methoxy-5′-pentylphenyl)-1,3,3-trimethylbicyclo[2.2.1]heptan-2-ol] | – | – | – | Ki (mCB1R; read-out: Ki (nM) mCB1R): > 10000 nM |
| CCCCCCCCc1ccc(OC)c(C2(O)C3(C)CCC(C3)C2(C)C)c1 (single isomer, unassigned) [Compound 3g, 2-(2′-methoxy-5′-octylphenyl)-1,3,3-trimethylbicyclo[2.2.1]heptan-2-ol] | – | – | – | Ki (mCB1R; read-out: Ki (nM) mCB1R): > 10000 nM |
| COc1cc(C)cc(OC)c1C1(O)C2(C)CCC(C2)C1(C)C (single isomer, unassigned) [Compound 1f, 2-(2,6′-dimethoxy-4′-methylphenyl)-1,3,3-trimethylbicyclo[2.2.1]-heptan-2-ol] | > 10000 nM | – | – | Ki (hCB2R [1]): 233 nM |
| CCCc1ccc(OC)c(C2(O)C3(C)CCC(C3)C2(C)C)c1 (single isomer, unassigned) [Compound 3b, 2-(2′-methoxy-5′-propylphenyl)-1,3,3-trimethylbicyclo[2.2.1]heptan-2-ol] | > 10000 nM | – | – | – |
| CCCCCCC(C)(C)c1cc(OC)c([C@@H]2C=C(CO)[C@@H]3C[C@H]2C3(C)C)c(OC)c1 [HU-308, reference compound] | – | – | agonist | E(max) % (hCB2R [2]): 100%; Ki (mCB1R): > 10000 nM |
| COc1cc(C)cc(OC)c1C1(O)C2(C)CCC(C2)C1(C)C (single isomer, unassigned) [Compound 1e, 2-(2,6′-dimethoxy-4′-methylphenyl)-1,3,3-trimethylbicyclo[2.2.1]-heptan-2-ol] | – | – | – | Ki (mCB1R; read-out: Ki (nM) mCB1R): > 10000 nM |
| CCCCCc1cc(OC)c(C2(O)C3(C)CCC(C3)C2(C)C)c(OC)c1F (single isomer, unassigned) [Compound 4b, 2-(3′-fluoro-2′,6′-dimethoxy-4′-pentylphenyl)-1,3,3-trimethylbicyclo[2.2.1]hept-an-2-ol] | – | – | agonist | EC50 (hCB2R [2]): 305 nM; Ki (mCB1R; [4]): > 10000 nM |
| CCC(C)(C)c1ccc(OC)c(C2(O)C3(C)CCC(C3)C2(C)C)c1 (single isomer, unassigned) [Compound 3f, 2-(2′-methoxy-5′-(tert-pentyl)phenyl)-1,3,3-trimethylbicyclo[2.2.1]heptan-2-ol] | > 10000 nM | – | – | – |
| CCC(C)(C)c1ccc(OC)c(C2(O)C3(C)CCC(C3)C2(C)C)c1 (single isomer, unassigned) [Compound 3e, 2-(2′-methoxy-5′-(tert-pentyl)phenyl)-1,3,3-trimethylbicyclo[2.2.1]heptan-2-ol] | – | – | – | Ki (mCB1R; read-out: Ki (nM) mCB1R): > 10000 nM |
| CCCCCCc1ccc(OC)c(C2(O)C3(C)CCC(C3)C2(C)C)c1OC (single isomer, unassigned) [Compound 2b, 2-(3′-hexyl-2,6′-dimethoxyphenyl)-1,3,3-trimethylbicyclo[2.2.1]heptan-2-ol] | – | 73.4 nM | weakly stimulated; also recorded: agonist | E(max) % (hCB2R [2]): 46.2%; Ki (mCB1R; [4]): > 10000 nM |
| CCCCCc1cc(OC)c(C2(O)C3(C)CCC(C3)C2(C)C)c(OC)c1F (single isomer, unassigned) [Compound 4a, 2-(3′-fluoro-2′,6′-dimethoxy-4′-pentylphenyl)-1,3,3-trimethylbicyclo[2.2.1]hept-an-2-ol] | – | – | – | Ki (mCB1R; [4]): > 10000 nM |
| CCCCCCCCc1ccc(OC)c(C2(O)C3(C)CCC(C3)C2(C)C)c1 (single isomer, unassigned) [Compound 3h, 2-(2′-methoxy-5′-octylphenyl)-1,3,3-trimethylbicyclo[2.2.1]heptan-2-ol] | > 10000 nM | – | – | – |
| CCCCCCC(C)(C)c1cc(OC)c([C@@]2(O)C3(C)CCC(C3)C2(C)C)c(OC)c1 (stereo partly drawn) [Compound 1c, 2-(2,6′-dimethoxy-4′-(2″-methyloctan-2″-yl)phenyl)-1,3,3-trimethyl-bicyclo[2.2.1]heptan-2-ol] | > 10000 nM | 56.8 nM | agonist | EC50 (hCB2R [2]): 121 nM; E(max) % (hCB2R [2]): 87.15% |
| CCCc1ccc(OC)c(C2(O)C3(C)CCC(C3)C2(C)C)c1 (single isomer, unassigned) [Compound 3a, 2-(2′-methoxy-5′-propylphenyl)-1,3,3-trimethylbicyclo[2.2.1]heptan-2-ol] | – | – | – | Ki (mCB1R; read-out: Ki (nM) mCB1R): > 10000 nM |
| CCCCCCC(C)(C)c1cc(OC)c(C2(O)C3(C)CCC(C3)C2(C)C)c(OC)c1F (single isomer, unassigned) [Compound 4d, 2-(3′-fluoro-2,6′-dimethoxy-4′-(2″-methyloctan-2″-yl)phenyl)-1,3,3-trimethyl-bicyclo[2.2.1]heptan-2-ol] | > 10000 nM | 56.6 nM | agonist | EC50 (hCB2R [2]): 104 nM; E(max) % (hCB2R [2]): 118.7% |
| CCCCCCc1ccc(OC)c(C2(O)C3(C)CCC(C3)C2(C)C)c1OC (single isomer, unassigned) [Compound 2a, 2-(3′-hexyl-2,6′-dimethoxyphenyl)-1,3,3-trimethylbicyclo[2.2.1]heptan-2-ol] | > 10000 nM | 224 nM | – | – |
| CCCCCc1cc(OC)c(C2(O)C3(C)CCC(C3)C2(C)C)c(OC)c1 (single isomer, unassigned) [Compound 1a, 2-(2,6′-dimethoxy-4′-pentylphenyl)-1,3,3-trimethylbicyclo[2.2.1]heptan-2-ol] | – | 47.7 nM | inverse agonist | EC50 (hCB2R [2]): 1580 nM; E(max) % (hCB2R [2]): 24.08%; IC50 (hCB2R [2]; read-out: IC50, reduction of [35S]GTPγS binding in hCB2R membrane): 1580 nM; Ki (mCB1R; [4]): > 10000 nM; inhibition of [3H]CP-55,940 binding to mCB1R (mCB1R; in words): no measurable inhibition |
